Measured values reported in ChEMBL document CHEMBL1122711, “Design, synthesis, and testing of potential antisickling agents. 4. Structure-activity relationships of benzyloxy and phenoxy acids” (J Med Chem, 1984).

Key:
[1] = human, 10000 µM
[2] = human, 20000 µM
Description: Solubility ratio ([HbS+drug (20 mM)]/[HbS-drug]

[3] = human, 40000 µM
Description: Solubility ratio ([HbS+drug (40 mM)]/[HbS-drug])

[4] = human, 5000 µM
Description: Solubility ratio ([HbS+drug (5 mM)]/[HbS-drug])

| Structure (SMILES) | Solubility ratio [1] | Solubility ratio [2] | Solubility ratio [3] | Solubility ratio [4] |
| --- | --- | --- | --- | --- |
| Nc1ccc(CSCC(=O)O)cc1 | 1.031 | 1.076 | 1.174 | 1.006 |
| O=C(O)COc1cccc(Cl)c1Cl | 1.057 | 1.09 | 1.135 | 1.025 |
| Cc1cc(Br)c(OCC(=O)O)c(Br)c1 | 1.043 | 1.139 | 1.284 | 1.077 |
| O=C(O)COCc1cc(Cl)cc(Cl)c1 | 1.149 | 1.33 | 1.382 | 1.076 |
| Cc1cc(C)cc(COCC(=O)O)c1 | 1.031 | 1.129 | 1.315 | 1.01 |
| Cc1cc(OCC(=O)O)cc(C)c1Br | 1.004 | 1.063 | 1.092 | 0.996 |
| Cc1ccc(C)c(OCC(=O)O)c1 | 1.055 | 1.114 | 1.248 | 1.031 |
| Cc1ccc(OCC(=O)O)c(Br)c1 | 1.035 | 1.102 | 1.189 | 1.031 |
| O=C(O)COc1ccc2c(c1)Cc1ccccc1-2 | 1.042 | 1.067 | 1.113 | 1.029 |
| Cc1ccc(COCC(=O)O)cc1C | 1.086 | 1.142 | 1.289 | 1.06 |
| Cc1cc(C)c(C)c(OCC(=O)O)c1 | 1.086 | 1.18 | 1.351 | 1.035 |
| CC(C)(OCc1ccc(Br)cc1)C(=O)O | 1.086 | 1.193 | 1.379 | 1.048 |
| COc1cc(OCC(=O)O)cc(OC)c1OC | 1.013 | 1.015 | 1.047 | 0.987 |
| Cc1ccc(COCC(=O)O)cc1 | 1.059 | 1.137 | 1.304 | 1.017 |
| O=C(O)CSc1cc(Cl)c(Cl)cc1Cl | 1.032 | 1.07 | 1.12 | 1.018 |
| O=C(O)COc1ccc([N+](=O)[O-])cc1 | 1.043 | 1.329 | 1.344 | 0.983 |
| O=C(O)CSc1ccc(Br)cc1 | 1.063 | 1.113 | 1.261 | 1.023 |

| Structure (SMILES) | Solubility ratio [1] | Solubility ratio [2] | Solubility ratio [3] | Solubility ratio [4] |
| --- | --- | --- | --- | --- |
| CSc1ccc(OCC(=O)O)cc1 | 1.027 | 1.16 | 1.223 | 1.035 |
| O=C(O)COc1ccc(Cl)cc1 | 1.08 | 1.163 | 1.287 | 1.04 |
| Cc1cc(OCC(=O)O)cc(C)c1Cl | 1.054 | 1.124 | 1.216 | 1.033 |
| O=C(O)COCc1ccc(Cl)c(Cl)c1 | 1.162 | 1.309 | 1.32 | 1.083 |
| COc1ccc(COCC(=O)O)cc1 | 1.012 | 1.054 | 1.149 | 0.996 |
| O=C(O)COc1ccc(I)cc1 | 1.046 | 1.09 | 1.176 | 1.04 |
| COc1cc(COCC(=O)O)ccc1C | 1.081 | 1.145 | 1.248 | 1.034 |
| Nc1ccc(OCC(=O)O)cc1 | 1.01 | 1.113 | 1.145 | 1 |
| O=C(O)COCc1ccc(Cl)cc1Cl | 1.13 | 1.295 | 1.246 | 1.079 |
| O=C(O)C(CCOc1ccc(Br)cc1)C(=O)O | 1.134 | 1.323 | 1.36 | 1.057 |
| COc1cccc(OCC(=O)O)c1OC | 1.036 | 1.064 | 1.144 | 1.017 |
| O=C(O)COC(c1ccccc1)c1ccc(Cl)cc1 (stereo unspecified) | 1.032 | 1.103 | 1.25 | 1.002 |
| CN(C)c1ccc(OCC(=O)O)cc1.Cl | 1.044 | 1.011 | 1.057 | 1.022 |
| O=C(O)COc1ccc(Cl)cc1Cl [2,4-DICHLOROPHENOXYACETIC ACID] | 1.083 | 1.151 | 1.313 | 1.049 |
| CC(C)(Oc1ccc(Cl)cc1)C(=O)O [CLOFIBRIC ACID] | 1.064 | 1.155 | 1.302 | 1.018 |
| Cc1ccc(C)c(OCCCC(C)(C)C(=O)O)c1 [GEMFIBROZIL] | 1.073 | 1.117 | 1.234 | 1.04 |

Results, then the compound that gave them:

| Solubility ratio [1] | Solubility ratio [2] | Solubility ratio [3] | Solubility ratio [4] | Structure (SMILES) |
| --- | --- | --- | --- | --- |
| 1.077 | 1.145 | 1.248 | 1.018 | O=C(O)COc1c(Br)cc(Br)cc1Br |
| 1.093 | 1.18 | 1.317 | 1.049 | O=C(O)COc1ccc(Br)cc1 |
| 1.053 | 1.117 | 1.236 | 1.025 | O=C(O)CSc1c(F)c(F)c(F)c(F)c1F |
| 1.054 | 1.163 | 1.325 | 1.05 | Cc1ccc(COCC(=O)O)c(C)c1 |
| 1.09 | 1.236 | 1.35 | 1.039 | O=C(O)COCc1ccc(I)cc1 |
| 1.048 | 1.141 | 1.31 | 1.035 | Cc1cc(C)cc(OCC(=O)O)c1 |
| 1.054 | 1.09 | 1.185 | 1.033 | O=C(O)COc1ccc2c(c1)oc1ccccc12 |
| 1.088 | 1.165 | 1.162 | 1.034 | O=C(O)COCc1ccc(Oc2ccccc2)cc1 |
| 1.104 | 1.206 | 1.396 | 1.065 | O=C(O)COCc1ccc(Cl)cc1 |
| 1.052 | 1.12 | 1.232 | 1.03 | COc1cc(OC)cc(OCC(=O)O)c1 |
| 1.117 | 1.234 | 1.339 | 1.061 | O=C(O)COc1ccc(Cl)c(Cl)c1 |
| 1.044 | 1.153 | 1.109 | 1.022 | CC(C)(Oc1ccc(Cl)cc1)C(=O)Oc1ccccc1C(=O)O |
| 1.08 | 1.171 | 1.275 | 1.05 | Cc1cc(OCC(=O)O)ccc1Cl |
| 1.134 | 1.247 | 1.322 | 1.054 | O=C(O)COc1ccc2c(c1)CCC2 |
| 1.053 | 1.131 | 1.307 | 1.024 | O=C(O)CSCc1ccc(Br)cc1 |
| 1.142 | 1.305 | 1.395 | 1.062 | O=C(O)CCOCc1ccc(Cl)c(Cl)c1 |
| 1.121 | 1.233 | 1.311 | 1.062 | COc1cc(Cl)ccc1COCC(=O)O |
| 1.06 | 1.118 | 1.243 | 1.027 | Cc1ccc(OCC(=O)O)cc1C |
| 1.043 | 1.141 | 1.245 | 1.033 | C=CCc1ccc(OCC(=O)O)c(OC)c1 |
| 1.054 | 1.163 | 1.31 | 1.031 | Cc1cc(C)c(COCC(=O)O)c(C)c1 |
| 1.058 | 1.101 | 1.263 | 1.007 | O=C(O)C(CCc1ccccc1)C(=O)O |
| 1.069 | 1.168 | 1.296 | 1.026 | O=C(O)CSc1ccc(Cl)cc1 |
| 1.012 | 1.058 |  | 1.004 | CC(C)(C)c1ccc(OCC(=O)O)cc1 |
| 1.118 | 1.233 | 1.398 | 1.059 | O=C(O)COCc1ccc(Br)cc1 |
| 0.932 | 0.981 | 1.198 | 0.954 | CC(C)(Oc1ccc(CCNC(=O)c2ccc(Cl)cc2)cc1)C(=O)O [BEZAFIBRATE] |
